Results taken from PMC3511273, “Identification of PPARgamma Partial Agonists of Natural Origin (I): Development of a Virtual Screening Procedure and In Vitro Validation” (PLoS ONE, 2012).
Like-named read-outs stand apart in the source and are kept apart here.

Target: T1, PPARγ ligand-binding domain (PPARγ LBD) (Homo sapiens, UniProt P37231)
T1 construct: gene PPARG
T1 sequence (P37231 238-505 limits assumed): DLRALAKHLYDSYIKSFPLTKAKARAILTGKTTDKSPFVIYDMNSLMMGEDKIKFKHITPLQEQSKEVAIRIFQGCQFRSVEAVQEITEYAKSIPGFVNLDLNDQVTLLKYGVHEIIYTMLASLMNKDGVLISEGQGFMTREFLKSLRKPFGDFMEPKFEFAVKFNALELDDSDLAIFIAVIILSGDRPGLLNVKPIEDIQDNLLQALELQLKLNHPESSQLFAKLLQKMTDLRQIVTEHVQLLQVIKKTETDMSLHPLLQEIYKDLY
Experiment: fluorescence polarization competition (PolarScreen PPARγ Competitor Assay Green)

[1] = displacement of fluorescent PPARγ ligand, ex 485 nm, em 535 nm, unreliable

| IC50 (read-out: Binding affinityIC50) [µM] | IC50 [1] [µM] | Structure (SMILES) |
| --- | --- | --- |
|  | > 8000 | COc1ccc(C(O)=C2C(=O)C(=O)N(Cc3cccnc3)C2c2ccc(O)cc2)c(C)c1 (stereo not drawn) [C3, ZINC00914339] |
| 1000 |  | CC(C)C(NC(=O)C(Cc1ccccc1)n1c(=O)[nH]c2ccccc2c1=O)C(=O)O (stereo not drawn) [C5, ZINC02128851] |
| 252 |  | Cc1ccc(C(c2ccc(C)o2)c2ccccc2C(=O)O)o1 [C7, ZINC03846929] |
| 585 |  | CC1(C)SC2c3ccccc3C(=O)N2C1C(=O)NC(Cc1ccccc1)C(=O)O (stereo not drawn) [C9, ZINC04085288] |

The remaining lines, values behind:

| Structure (SMILES) | IC50 (read-out: Binding affinityIC50) [µM] | IC50 [1] [µM] |
| --- | --- | --- |
| C=C(C)COc1ccc2oc(-c3ccccc3)c(C(=O)O)c2c1 [C1, ZINC00083676] | 12.4 |  |
| Cc1ccc(C2(CC(=O)O)CCOC(C)(C)C2)cc1 (stereo not drawn) [C2, ZINC00201868] |  | > 8000 |
| Cc1oc2c(C)c3oc(=O)c(CC(=O)N4CCC(C(=O)O)CC4)c(C)c3cc2c1C [C6, ZINC02156886] |  | > 8000 |
| Cc1cc(C)c2c(O)nn(C3CCOC(C)(C)C3)c2n1 (stereo not drawn) [C8, ZINC04040746] | 460 |  |
| CC(C)C[C@H](NC(=O)OCC1c2ccccc2-c2ccccc21)C(=O)O [FMOC, reference compound] | 18.5 |  |
